The text below walks through data of patent US20240124610A1, “METHODS FOR TREATING HER2-NEGATIVE OR HER2-LOW CANCER” (Washington University, priority 2022, published 2024).

“Also recorded” adds a separate entry of the source.

Experiment [1] concerns patients expressing BCAR4. Particulars: letrozole (AI treatment); public data GSE41994; FIG. 39; cited from earlier work.
Experiment [2] concerns MCF7 (ER+/HER2-negative) cells expressing full length BCAR4 or LITAF-BCAR4 gene fusion. Nature of the experiment: Tamoxifen treatment of BCAR4-overexpressing breast cancer cells (FIG. 37). Particulars: in vitro. In kind it is cell-based. The text has this:
FIG. 37 is a graph showing BCAR4 gene fusion-expressing cells are resistance to Tamoxifen treatment in breast cancer in accordance with the present disclosure. MCF7 (ER+/HER2-negative) overexpressing cell lines expressing full length BCAR4 (B4) or LITAF-BCAR4 gene fusion (LB) were used.
BCAR4 gene fusion-expressing cells are resistant to Tamoxifen treatment in breast cancer (see e.g., FIG. 37). It is known that full length BCAR4 is resistant to tamoxifen therapy, but no one has shown that BCAR4 gene fusions cause resistance. BCAR4-fusions express only the 4th exon of BCAR4 gene.

A further experiment relates to breast cancer patients. Kind of experiment: Survival analysis of tamoxifen-treated breast cancer patients by BCAR4 expression. The experiment is classed as in vivo, human. The text has this:
FIG. 25 is a survival curve showing BCAR4-positive patients (blue) have worse outcome when treated with tamoxifen in accordance with the present disclosure.
BCAR4+ is categorized as the top 20% and BCAR4− as the bottom 80%.

In experiment [3] the test system is ZR751 cells overexpressing BCAR4 full length or gene fusions. Nature of the experiment: Cell viability under lapatinib treatment (FIG. 24). The experiment is classed as cell-based. Particulars: ZR751 cells overexpressing BCAR4 full length or gene fusions vs control cells without BCAR4, increased lapatinib.
For experiment [4], the system named is HER2/HER3 signaling in ZR-75-1 cells. Kind of experiment: Western blot of HER3/AKT signaling in lapatinib-treated cells (FIG. 29D). Particulars: ZR-75-1 cells expressing full length BCAR4 or gene fusions. In kind it is cell-based. The arrangement: dose or concentration left out as unconfirmed.
Description: Antibodies against FLAG (2368S; RRID:AB_2217020, 1:1000; Cell Signaling Technology), actin (3700S; RRID:AB_2242334, 1:10,000; Cell Signaling Technology), Goat anti-mouse or anti-rabbit peroxidase-conjugated secondary antibodies (Thermo Fisher Scientific) were used for experiments. Protein samples were prepared with ice-cold RIPA lysis buffer (25 mmol/L Tris pH7.5, 1% NP40, 0.1% SDS, 150 mmol/L NaCl, 0.5% sodium deoxycholate, and 1× Halt Protease Inhibitor Cocktail; Thermo Fisher Scientific). Lysate was subjected to a short sonication and then clarified by centrifugation at maximum speed, 4° C. for 10 minutes. Protein concentration was determined with the DC Protein Assay (BioRad). Samples were diluted in loading buffer, boiled, and equal protein concentrations (20-30 mg) loaded and resolved by SDS-polyacrylamide gel electrophoresis in 12% or 4% to 12% Bolt Bis-Tris precast gels (Invitrogen). Gels were transferred at 60° C. for 1 hour to a nitrocellulose membrane (BioRad). Proteins were detected with specific antibodies and visualized and quantified on the ChemDoc MP Imaging System (BioRad) using secondary antibodies and Clarity Western ECL Substrate (Thermo Fisher Scientific).
Another experiment has as its system BCAR4-expressing cells. Kind of experiment: Cell growth under lapatinib treatment (FIG. 42). The note with it: BCAR4-expressing cells treated with lapatinib. The experiment is classed as cell-based. The text has this:
In breast cancer HER3 preferentially binds to HER2 to form a heterodimer.

As for `N#Cc1ccc(C(c2ccc(C#N)cc2)n2cncn2)cc1` [letrozole], the “Progression Free Survival of top 25% of patients expressing BCAR4” value in experiment [1] was “worse Progression Free Survival”.
As to `CC/C(=C(\c1ccccc1)c1ccc(OCCN(C)C)cc1)c1ccccc1` [tamoxifen], in experiment [2], the “response to Tamoxifen treatment” value is recorded as “resistant”. Also, the “outcome of BCAR4-high patients” value in the experiment with breast cancer patients (tamoxifen only treatment, TCGA cohort (n=186), FIG. 35) was “worse outcomes”. In the experiment on breast cancer patients (tamoxifen treatment, GSE6532 cohort, FIG. 36), the “distant metastasis free survival of BCAR4-high patients” value was “worse distant metastasis free survival”. In addition, the “outcome of early stage BCAR4-positive vs BCAR4-negative patients” value in the experiment with breast cancer patients (tamoxifen, microarray data of early-stage breast cancer patients, FIG. 25) is reported as “poor outcome”.
On to `CS(=O)(=O)CCNCc1ccc(-c2ccc3ncnc(Nc4ccc(OCc5cccc(F)c5)c(Cl)c4)c3c2)o1` [lapatinib], for which the cell viability entry in experiment [3] is “decreased cell viability”. Also, the “phosphorylation of HER3 and downstream activation of AKT” value is listed as “attenuated these changes; also recorded: inhibited” in experiment [4] and “lose HER3 activation” in experiment [4] (listed as Lapatinib). In the experiment with BCAR4-expressing cells, the cell growth entry was “decreased growth”.
